Source: publication PMC8086144, “A novel peptide antagonist of the human growth hormone receptor” (The Journal of Biological Chemistry, 2021)

Molecular target: T1, hPRLR (Homo sapiens, UniProt P16471)
T1 construct: T84 cells express high levels of hPRLR relative to hGHR (>1300:1); host or cells: T84 (human colon cancer), MALME-3M (human melanoma)
T1 sequence (P16471 25-622): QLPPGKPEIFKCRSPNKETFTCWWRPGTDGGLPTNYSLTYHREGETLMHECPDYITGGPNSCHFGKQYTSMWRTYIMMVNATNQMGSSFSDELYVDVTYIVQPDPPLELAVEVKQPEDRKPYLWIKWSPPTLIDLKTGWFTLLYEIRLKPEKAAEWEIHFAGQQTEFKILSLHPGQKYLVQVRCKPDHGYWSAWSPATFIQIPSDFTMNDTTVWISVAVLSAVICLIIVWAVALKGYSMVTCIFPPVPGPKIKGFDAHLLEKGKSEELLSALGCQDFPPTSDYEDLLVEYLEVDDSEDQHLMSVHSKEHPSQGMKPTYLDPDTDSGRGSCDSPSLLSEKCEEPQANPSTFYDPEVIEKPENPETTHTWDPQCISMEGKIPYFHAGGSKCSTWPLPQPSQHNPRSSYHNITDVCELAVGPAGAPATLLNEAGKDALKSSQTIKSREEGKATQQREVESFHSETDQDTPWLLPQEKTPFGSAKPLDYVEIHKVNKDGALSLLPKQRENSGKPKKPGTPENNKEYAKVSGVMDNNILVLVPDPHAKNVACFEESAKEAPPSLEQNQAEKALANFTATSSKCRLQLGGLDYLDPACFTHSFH
Experiment: hPRL-induced pSTAT5 in MALME-3M cells, Western blot
Assay type: cell-based
Conditions: 2.5 nM hPRL, 20 min, S1H concentration not given
Protocol: SK-MEL-28, MALME-3M, and T84 cells were grown and maintained in Eagle's Minimal Essential Medium. IM9 and L cells were grown in RPMI-1640 media and Dulbecco's modified Eagle's medium, respectively. All growth media was supplemented with 10% fetal bovine serum and 1× antibiotic-antimycotic […] solution. Cells were grown at 37 °C under a 5% CO2 atmosphere in a humidified incubator, and growth media was replaced every 48 h during incubation. No hGH was present in or added to the growth media unless specifically indicated. […]
Following treatment, the cells were harvested at the indicated time points, and the total protein was extracted. […] Sample protein concentration was quantified using a Bradford assay with bovine serum albumin as the protein standard. Absorbance at 595 nm was measured using a Spectramax 250 multimode plate reader (Molecular Devices) and processed using SoftmaxPro v4.7.1 software.
Cytosolic fractions from treated cells were thawed on ice, and 80 μg protein was loaded onto polyacrylamide gels for separation by SDS-PAGE. […] Chemiluminescence signals were detected using a GelDoc (BioRad) fluorescence imager. […]

inhibition of hPRL-induced pSTAT5: 49%
Structure (SMILES): CC[C@H](C)[C@H](NC(=O)[C@H](Cc1ccc(O)cc1)NC(C)=O)C(=O)N1CCC[C@H]1C(=O)N[C@@H](CCCCN)C(=O)N[C@@H](CCC(=O)O)C(=O)N[C@@H](CCC(N)=O)C(=O)N[C@@H](CCCCN)C(=O)N[C@@H](Cc1ccc(O)cc1)C(=O)N[C@@H](CO)C(=O)N[C@@H](Cc1ccccc1)C(=O)N[C@@H](CC(C)C)C(=O)N[C@@H](CCC(N)=O)C(=O)N[C@@H](CC(N)=O)C(=O)N1CCC[C@H]1C(=O)N[C@@H](CCC(N)=O)C(=O)N[C@H](C(N)=O)[C@@H](C)O [S1H]
